Experimental data taken from US12202818B2, “Compounds and methods for CD73 modulation and indications therefor” (Opna Bio SA, priority 2020, dated 2025).
pIC50: −log10 of the molar value.

Tests used:
[1] = molecular target: T1, Human CD73 (amino acid residues 27-549) (Homo sapiens, UniProt P21589); assay: CD73 enzymatic assay (luciferase-based indirect assay, CellTiter-Glo); type: biochemical; settings: 0.4 nM CD73, 150 μM AMP, 1 hour at room temperature
T1 construct: Human CD73 (amino acid residues 27-549); His tag (N); made in house; host or cells: E. coli
T1 sequence (P21589 27-549): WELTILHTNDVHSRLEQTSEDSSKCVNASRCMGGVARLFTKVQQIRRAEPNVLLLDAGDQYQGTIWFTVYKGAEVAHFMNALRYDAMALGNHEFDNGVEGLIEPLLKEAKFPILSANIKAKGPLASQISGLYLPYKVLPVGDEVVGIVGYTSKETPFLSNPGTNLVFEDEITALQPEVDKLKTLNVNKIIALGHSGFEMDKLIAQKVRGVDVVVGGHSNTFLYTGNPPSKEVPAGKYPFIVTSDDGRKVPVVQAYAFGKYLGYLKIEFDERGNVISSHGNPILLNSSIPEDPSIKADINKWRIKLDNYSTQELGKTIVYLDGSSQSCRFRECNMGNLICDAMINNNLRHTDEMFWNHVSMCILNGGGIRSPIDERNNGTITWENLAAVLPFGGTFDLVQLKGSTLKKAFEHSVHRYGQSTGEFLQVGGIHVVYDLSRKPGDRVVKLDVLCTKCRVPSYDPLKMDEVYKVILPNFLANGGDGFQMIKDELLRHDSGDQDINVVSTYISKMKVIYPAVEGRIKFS
Experimental: CD73 enzymatic activity was measured in a luciferase-based indirect assay using CellTiter-Glo® system from Promega. The luciferase reaction in the presence of ATP is inhibited by AMP, a primary substrate of CD73. Addition of CD73 enzyme to the reaction converts AMP to adenosine, and release the inhibition, producing a luminescent signal. Inhibition of CD73 leads to the decrease of this luminescent signal.
Human CD73 (amino acid residues 27-549) with N-Terminal His tag was purified in E. coli. All the assay components were prepared in 50 mM HEPEs buffer (pH 7.4) with 0.01% Tween-20. The CD73 enzymatic assay was performed using 0.4 nM CD73 and 150 μM AMP. 9.5 μL of CD73 protein and 9.5 μL of AMP were added to the wells of a 384 well plate containing lpL of various concentrations of test compound or DMSO vehicle and incubated for 1 hour at room temperature. 16 wells containing CD73, AMP and 5% DMSO served as high control. 16 wells containing AMP and 5% DMSO served as low control. Enzymatic reaction was stopped and AMP level was measured indirectly by adding 5 μL of CellTiter-Glo® 2.0 reagent and 5 μL of ATP with a final concentration of 1 μM. Following incubation of the plate at room temperature for 30 minutes, luminescent signal was read on a Tecan plate reader. The percentage inhibition at individual concentrations relative to high and low controls was calculated. The data were analyzed by using nonlinear regression to generate IC50 values.

[2] = molecular target: T2, human CD73 (Homo sapiens, UniProt P21589); assay: Inhibitor activity against CD73 in cell based assay (CD73 expressing CHO-K1 cells); settings: CHO-K1 cells expressing human CD73, 150 μM AMP, 4 hours of incubation; read-out: CHO-K1 CELL_VARIANT: CD73 IC50
T2 construct: expressed in transfected cells
T2 sequence (P21589 27-549): T1 sequence (P21589 27-549)
Experimental: Determine Inhibitor Activity Against CD73 in Cell Based Assay
CD73 expressing CHO-K1 cell clones were generated upon stable transfection of a plasmid expressing human CD73 under the control of CMV promoter. Cells were selected in Ham's F-12K (Kaighn's) media supplemented with 10% fetal bovine serum and 1 mg/ml G418 at 37° C. in a humidified incubator supplied with 5% CO2. The assays were performed as follows. Cells were seeded in a 96 well plate in 50 μL of culture media at a density of 1×10^4 per well. Compound at a maximal concentration of 5 mM was serially diluted 1:3 in DMSO for a total of 8 point titration. A 2 μL aliquot of each dilution point was added to […] culture media and 25 µL was added to each well, providing 10 μM compound at the maximum concentration point. AMP was diluted in culture media and 25 μL was added to each well with a final concentration of 150 μM. 4 wells containing 0.2% DMSO treated cells and AMP served as high controls and 4 wells containing media only with 0.2% DMSO and AMP served as low controls. After 4 hours of incubation, 20 μL of the supernatant was transferred to a 384 well plate. AMP level in supernatant was measured indirectly by adding 5 μL of CellTiter-Glo® 2.0 reagent and 5 μL of ATP with a final concentration of 1 μM. Following incubation of plate at room temperature for 30 minutes, luminescent signal was read on a Tecan plate reader. The percentage inhibition at individual concentrations relative to high and low controls was calculated. The data were analyzed by using nonlinear regression to generate ICso values.

Structure (SMILES)	pIC50 [1]	pIC50 [2]
O=c1[nH]ncc(N2CC[C@@H](Oc3cc(-c4cnn(C5CCNCC5)c4)ccn3)C2)c1Cl [P-0002, (R)-4-chloro-5-(3-((4-(1-(piperidin-4-yl)-1H-pyrazol-4-yl)pyridin-2-yl)oxy)pyrrolidin-1-yl)pyridazin-3(2H)-one]	5.00 to 9.00	5.00 to 9.00
CC(C)N1CCN(c2ccnc(O[C@@H]3CCN(c4cn[nH]c(=O)c4Cl)C3)c2)CC1 [P-0003, (R)-4-chloro-5-(3-((4-(4-isopropylpiperazin-1-yl)pyridin-2-yl)oxy)pyrrolidin-1-yl)pyridazin-3(2H)-one]	5.00 to 9.00	5.00 to 9.00
CC1(CN2CCC(c3ccnc(O[C@@H]4CCN(c5cn[nH]c(=O)c5Cl)C4)c3)CC2)COC1 [P-0005, (R)-4-chloro-5-(3-((4-(1-((3-methyloxetan-3-yl)methyl)piperidin-4-yl)pyridin-2-yl)oxy)pyrrolidin-1-yl)pyridazin-3(2H)-one]	5.00 to 9.00	5.00 to 9.00
Cc1nn(C(CO)CO)c(C)c1-c1cc(O[C@H]2CN(c3cnn(CCO)c(=O)c3Cl)C[C@@H]2F)ncc1F [P-0006, 4-chloro-5-((3S,4S)-3-((4-(1-(1,3-dihydroxypropan-2-yl)-3,5-dimethyl-1H-pyrazol-4-yl)-5-fluoropyridin-2-yl)oxy)-4-fluoropyrrolidin-1-yl)-2-(2-hydroxyethyl)pyridazin-3(2H)-one]	5.00 to 9.00	5.00 to 9.00
CN1CCC(c2ccnc(O[C@@H]3CCN(c4cn[nH]c(=O)c4Cl)C3)c2)CC1 [P-0008, (R)-4-chloro-5-(3-((4-(1-methylpiperidin-4-yl)pyridin-2-yl)oxy)pyrrolidin-1-yl)pyridazin-3(2H)-one]	5.00 to 9.00	5.00 to 9.00
CC(C)(O)CN1CCC(c2ccnc(O[C@@H]3CCN(c4cn[nH]c(=O)c4Cl)C3)c2)CC1 [P-0010, (R)-4-chloro-5-(3-((4-(1-(2-hydroxy-2-methylpropyl)piperidin-4-yl)pyridin-2-yl)oxy)pyrrolidin-1-yl)pyridazin-3(2H)-one]	5.00 to 9.00	5.00 to 9.00
O=c1[nH]ncc(N2CC[C@@H](Oc3cc(C4CCN(CC(O)C(F)(F)F)CC4)ccn3)C2)c1Cl (stereo partly drawn) [P-0011, 4-chloro-5-((3R)-3-((4-(1-(3,3,3-trifluoro-2-hydroxypropyl)piperidin-4-yl)pyridin-2-yl)oxy)pyrrolidin-1-yl)pyridazin-3(2H)-one]	5.00 to 9.00	5.00 to 9.00
Cc1nn(CC(C)(C)O)c(C)c1-c1ccnc(O[C@H]2CN(c3cnn(CCO)c(=O)c3Cl)C[C@@H]2F)c1 [P-0015, 4-chloro-5-((3S,4S)-3-fluoro-4-((4-(1-(2-hydroxy-2-methylpropyl)-3,5-dimethyl-1H-pyrazol-4-yl)pyridin-2-yl)oxy)pyrrolidin-1-yl)-2-(2-hydroxyethyl)pyridazin-3(2H)-one]	5.00 to 9.00	5.00 to 9.00
O=C(CO)N1CCC(c2ccnc(O[C@@H]3CCN(c4cn[nH]c(=O)c4Cl)C3)c2)CC1 [P-0016, (R)-4-chloro-5-(3-((4-(1-(2-hydroxyacetyl)piperidin-4-yl)pyridin-2-yl)oxy)pyrrolidin-1-yl)pyridazin-3(2H)-one]	5.00 to 9.00	5.00 to 9.00
Cc1nn(CC(C)(C)O)c(C)c1-c1ccnc(O[C@@H]2CCN(c3cnn(CCO)c(=O)c3Cl)C2)c1 [P-0017, (R)-4-chloro-5-(3-((4-(1-(2-hydroxy-2-methylpropyl)-3,5-dimethyl-1H-pyrazol-4-yl)pyridin-2-yl)oxy)pyrrolidin-1-yl)-2-(2-hydroxyethyl)pyridazin-3(2H)-one]	5.00 to 9.00	5.00 to 9.00

Continued, values first:

pIC50 [1]	pIC50 [2]	Structure (SMILES)
5.00 to 9.00	5.00 to 9.00	CN1C2CCC1CN(c1ccnc(O[C@@H]3CCN(c4cn[nH]c(=O)c4Cl)C3)c1)C2 [P-0004, 4-chloro-5-((3R)-3-((4-(8-methyl-3,8-diazabicyclo[3.2.1]octan-3-yl)pyridin-2-yl)oxy)pyrrolidin-1-yl)pyridazin-3(2H)-one]
5.00 to 9.00	5.00 to 9.00	Cc1nn(C2COC2)c(C)c1-c1cc(O[C@H]2CN(c3cnn(CCO)c(=O)c3Cl)C[C@@H]2F)ncc1F [P-0007, 4-chloro-5-((3S,4S)-3-((4-(3,5-dimethyl-1-(oxetan-3-yl)-1H-pyrazol-4-yl)-5-fluoropyridin-2-yl)oxy)-4-fluoropyrrolidin-1-yl)-2-(2-hydroxyethyl)pyridazin-3(2H)-one]
5.00 to 9.00	5.00 to 9.00	CC1CNCCC1c1ccnc(O[C@@H]2CCN(c3cn[nH]c(=O)c3Cl)C2)c1 (stereo partly drawn) [P-0009, 4-chloro-5-((3R)-3-((4-(3-methylpiperidin-4-yl)pyridin-2-yl)oxy)pyrrolidin-1-yl)pyridazin-3(2H)-one]
5.00 to 9.00	5.00 to 9.00	O=c1[nH]ncc(N2CC[C@@H](Oc3cc(C4CC5CCC(C4)N5)ccn3)C2)c1Cl (stereo partly drawn) [P-0012, 5-((3R)-3-((4-(8-azabicyclo[3.2.1]octan-3-yl)pyridin-2-yl)oxy)pyrrolidin-1-yl)-4-chloropyridazin-3(2H)-one]
5.00 to 9.00	5.00 to 9.00	O=c1[nH]ncc(N2CC[C@@H](Oc3cc(N4CC5CCC(C4)N5)ccn3)C2)c1Cl [P-0013, 5-((3R)-3-((4-(3,8-diazabicyclo[3.2.1]octan-3-yl)pyridin-2-yl)oxy)pyrrolidin-1-yl)-4-chloropyridazin-3(2H)-one]
5.00 to 9.00	5.00 to 9.00	Cc1nn(CC(C)(C)O)c(C)c1-c1cc(O[C@@H]2CCN(c3cnn(CCO)c(=O)c3Cl)C2)ncn1 [P-0014, (R)-4-chloro-5-(3-((6-(1-(2-hydroxy-2-methylpropyl)-3,5-dimethyl-1H-pyrazol-4-yl)pyrimidin-4-yl)oxy)pyrrolidin-1-yl)-2-(2-hydroxyethyl)pyridazin-3(2H)-one]
5.00 to 9.00	5.00 to 9.00	O=c1[nH]ncc(N2CC[C@@H](Oc3cc(C4CCNC4)ccn3)C2)c1Cl (stereo partly drawn) [P-0018, 4-chloro-5-((3R)-3-((4-(pyrrolidin-3-yl)pyridin-2-yl)oxy)pyrrolidin-1-yl)pyridazin-3(2H)-one]
5.00 to 9.00	5.00 to 9.00	Cc1nn(C2COC2)c(C)c1-c1cc(O[C@@H]2CCN(c3cnn(CCO)c(=O)c3Cl)C2)ncc1F [P-0020, (R)-4-chloro-5-(3-((4-(3,5-dimethyl-1-(oxetan-3-yl)-1H-pyrazol-4-yl)-5-fluoropyridin-2-yl)oxy)pyrrolidin-1-yl)-2-(2-hydroxyethyl)pyridazin-3(2H)-one]
5.00 to 9.00	5.00 to 9.00	Cc1nn(CC(C)(C)O)c(C)c1-c1ccnc(O[C@H]2CN(c3cn[nH]c(=O)c3Cl)C[C@@H]2F)c1 [P-0021, 4-chloro-5-((3S,4S)-3-fluoro-4-((4-(1-(2-hydroxy-2-methylpropyl)-3,5-dimethyl-1H-pyrazol-4-yl)pyridin-2-yl)oxy)pyrrolidin-1-yl)pyridazin-3(2H)-one]
5.00 to 9.00	5.00 to 9.00	Cc1nn(C2CC2)c(C)c1-c1ccnc(O[C@@H]2CCN(c3cn[nH]c(=O)c3Cl)C2)c1 [P-0022, (R)-4-chloro-5-(3-((4-(1-cyclopropyl-3,5-dimethyl-1H-pyrazol-4-yl)pyridin-2-yl)oxy)pyrrolidin-1-yl)pyridazin-3(2H)-one]
